# Source: ChEMBL document CHEMBL4130373, “Design, synthesis and biological evaluation of 4-anilinoquinoline derivatives as novel potent tubulin depolymerization agents” (Eur J Med Chem, 2017)
# Calls of active or inactive are those of the source. No cut-off for these calls is given here.
# What was measured:
# [1] = Antiproliferative activity against human HCT8/T cells after 48 hrs by MTT assay; format: functional, cell-based; conditions: HCT-8, 48 h
# [2] = Resistance index, ratio of IC50 for human HCT8/T cells to IC50 for human HCT8 cells; format: functional
# A2780S [3] = assay: Cell cycle arrest in human A2780S cells assessed as accumulation at S phase at 30 nM after 24 hrs by propidium iodide staining based flow cytometry (reference value: 40.36%); format: functional
# NCI/ADR-RES = assay: Antiproliferative activity against human MCF7/ADR cells after 48 hrs by MTT assay; format: functional, cell-based
# [4] = Resistance index, ratio of IC50 for human HCT8/V cells to IC50 for human HCT8 cells; format: functional
# A2780S [5] = assay: Cell cycle arrest in human A2780S cells assessed as accumulation at S phase at 3 nM after 24 hrs by propidium iodide staining based flow cytometry (reference value: 40.36%); format: functional
# HepG2 = assay: Binding affinity to beta-tubulin colchicine binding site in human HepG2 cells assessed as reduction in EBI-beta-tubulin adduct formation preincubated for 2 hrs followed by EBI addition measured after 1.5 hrs by Western blot analysis; format: cell-based
# [6] = Resistance index, ratio of IC50 for human MCF7/ADR cells to IC50 for human MCF7 cells; format: functional
# A2780S [7] = assay: Induction of alpha-tubulin depolymerization in human A2780S cells at 5 to 50 nM after 24 hrs by DAPI staining based immunofluorescence microscopic method; format: cell-based
# MDA-MB-231 = assay: Antiproliferative activity against human MDA-MB-231 cells after 48 hrs by MTT assay; format: functional, cell-based; conditions: MDA-MB-231, 48 h
# HCT-8 = assay: Antiproliferative activity against human HCT8 cells after 48 hrs by MTT assay; format: functional, cell-based; conditions: HCT-8, 48 h
# A2780/Taxol = assay: Antiproliferative activity against human A2780T cells after 48 hrs by MTT assay; format: functional, cell-based
# Mus musculus [8] = assay: Toxicity in Balb/c athymic nude mouse xenografted with human HCT116 cells assessed as abnormal behaviour at 2.5 mg/kg administered once in every 2 days; format: organism-based; conditions: in vivo, 48 h
# [9] = Antiproliferative activity against human HCT8/V cells after 48 hrs by MTT assay; format: functional, cell-based; conditions: HCT-8, 48 h
# A2780S [10] = assay: Cell cycle arrest in human A2780S cells assessed as accumulation at G2/M phase at 3 nM after 24 hrs by propidium iodide staining based flow cytometry (reference value: 15.34%); format: functional
# [11] = Solubility of the compound in physiological saline at 1 mg; format: physicochemical; conditions: buffer
# A2780S [12] = assay: Antiproliferative activity against human A2780S cells after 48 hrs by MTT assay; format: functional, cell-based
# Mus musculus [13] = assay: Toxicity in Balb/c athymic nude mouse xenografted with human HCT116 cells assessed as effect on feeding behaviour at 2.5 mg/kg administered once in every 2 days; format: organism-based; conditions: in vivo, 48 h
# HEK293 = assay: Antiproliferative activity against HEK293 cells after 48 hrs by MTT assay; format: cell-based; conditions: Homo sapiens, HEK293, 48 h; read-out: IC50
# A2780S [14] = assay: Cell cycle arrest in human A2780S cells assessed as accumulation at G2/M phase at 10 nM after 24 hrs by propidium iodide staining based flow cytometry (reference value: 15.34%); format: functional
# MCF7 = assay: Antiproliferative activity against human MCF7 cells after 48 hrs by MTT assay; format: functional, cell-based; conditions: MCF7, 48 h
# Sus scrofa = species on record: Sus scrofa; assay: Inhibition of porcine brain tubulin polymerization preincubated for 5 mins followed by GTP addition measured every 2 mins by spectrophotometric method
# Mus musculus [15] = assay: Toxicity in Balb/c athymic nude mouse xenografted with human HCT116 cells assessed as body weight loss at 2.5 mg/kg administered once in every 2 days relative to control; format: organism-based; conditions: in vivo, 48 h
# A2780S [16] = assay: Cell cycle arrest in human A2780S cells assessed as accumulation at S phase at 10 nM after 24 hrs by propidium iodide staining based flow cytometry (reference value: 40.36%); format: functional
# L02 = assay: Antiproliferative activity against human LO2 cells after 48 hrs by MTT assay; format: cell-based; conditions: L02, 48 h
# HCT-116 [17] = assay: Antiproliferative activity against human HCT116 cells after 48 hrs by MTT assay; format: functional, cell-based; conditions: HCT-116, 48 h
# A549 = assay: Antiproliferative activity against human A549 cells after 48 hrs by MTT assay; format: functional, cell-based; conditions: A549, 48 h
# HCT-116 [18] = assay: Antitumor activity against human HCT116 cells xenografted in Balb/c athymic nude mouse assessed as tumor growth inhibition at 2.5 mg/kg administered once in every 2 days measured on day 18 post treatment relative to control; format: functional; conditions: read-out: TGI
# A2780S [19] = assay: Cell cycle arrest in human A2780S cells assessed as accumulation at G2/M phase after 24 hrs by propidium iodide staining based flow cytometry; format: functional
# A2780S [20] = assay: Cell cycle arrest in human A2780S cells assessed as accumulation at G0/G1 phase at 30 nM after 24 hrs by propidium iodide staining based flow cytometry (reference value: 44.3%); format: functional
# [21] = Resistance index, ratio of IC50 for human A2780T cells to IC50 for human A2780S cells; format: functional
# A2780S [22] = assay: Cell cycle arrest in human A2780S cells assessed as accumulation at G0/G1 phase at 3 nM after 24 hrs by propidium iodide staining based flow cytometry (reference value: 44.3%); format: functional
# A2780S [23] = assay: Cell cycle arrest in human A2780S cells assessed as accumulation at G2/M phase at 30 nM after 24 hrs by propidium iodide staining based flow cytometry (reference value: 15.34%); format: functional
# A2780S [24] = assay: Cell cycle arrest in human A2780S cells assessed as accumulation at G0/G1 phase at 10 nM after 24 hrs by propidium iodide staining based flow cytometry (reference value: 44.3%); format: functional
compound,measurement,setting,value
COc1ccc(N(C)c2cc(C)nc3ccccc23)cc1NC(=O)CCCCl,IC50,[1],3.5 nM
same,Ratio IC50,[2],1
same,Activity,A2780S [3],17.03%
same,IC50,NCI/ADR-RES,3.3 nM
same,Ratio IC50,[4],1
same,Activity,A2780S [5],32.57%
same,Activity,HepG2,Dose-dependent effect
same,Ratio IC50,[6],2.3
same,Activity,A2780S [7],Active
same,IC50,MDA-MB-231,3.9 nM
same,IC50,HCT-8,3.4 nM
same,IC50,A2780/Taxol,3.7 nM
same,Activity,Mus musculus [8],Non-Toxic
same,IC50,[9],3.5 nM
same,Activity,A2780S [10],39.48%
same,solubility,[11],Soluble
same,IC50,A2780S [12],2.2 nM
same,Activity,Mus musculus [13],Non-Toxic
same,IC50,HEK293,45.3 nM
same,Activity,A2780S [14],74.62%
same,IC50,MCF7,1.5 nM
same,inhibition,Sus scrofa,Dose-dependent effect
same,Activity,Mus musculus [15],< 10%
same,Activity,A2780S [16],22.69%
same,IC50,L02,75.6 nM
same,IC50,HCT-116 [17],2.7 nM
same,IC50,A549,3.2 nM
same,inhibition in vivo at 2.5 mg/kg,HCT-116 [18],54.3%
same,Activity,A2780S [19],Dose-dependent effect
same,Activity,A2780S [20],2.3%
same,Ratio IC50,[21],1.7
same,Activity,A2780S [22],27.95%
same,Activity,A2780S [23],80.67%
same,Activity,A2780S [24],2.68%
